pIC50: −log10 of the molar value. Like-named read-outs stand apart in the source and are kept apart here.
Columns and labels:
[1] = tested on: production of IL-1β, IL-6, and TNF-α by PBMC activated with LPS; experiment: Lipopolysaccharide-activated PBMC cytokine production assay; assay type: cell-based; settings: read-out: IC50 in the whole blood PMBC assay
Procedure: Lipopolysaccharide-Activated PBMC Cytokine Production Assay
Test compounds were evaluated in vitro for the ability to inhibit the production of IL-1β, IL-6, and TNF-α by PBMC activated with bacterial lipopolysaccharide (LPS). Fresh leukocytes were obtained from a local blood bank, and peripheral blood mononuclear cells (PBMCs) were isolated by density gradient centrifugation on Ficol-Paque Plus (Pharmacia).
Preparation of Test Compound Stock Solutions
All reagents were prepared in RPMI 1640+10% v/v human AB serum+1×Pens/Strep/Glu (assay medium). Test compounds were dissolved in 100% DMSO and serially diluted in 96-well polypropylene round bottom micro titer plates (drug plate). Serial dilutions were then diluted 1:250 into assay medium to a 4× working concentration. Compound serial dilutions were half-log, 10 point titrations with a final starting concentration of 1 μM.
Treatment of Cells with Test Compounds and Activation with Lipopolysaccharide
LPS was prepared to a 4× concentration in assay medium. 100 μl of PBMC (1×10^6 cells/ml) were plated in a 96-well polystyrene flat bottom micro titer tissue culture plate and incubated with 50 μl of 4× compound serial dilution for 1 hour at 37° C., 5% CO2 in a tissue culture incubator. 50 μl 4×LPS or control was added and the plates were incubated at 37° C., 5% CO2 in a tissue culture incubator for 18 hours. The final DMSO concentration was 0.1%. The total volume was 200 μL. The final LPS concentration was 100 ng/mL. After 18 hours culture supernatants were removed and IL-1β, IL-6, and TNF-α presence in the supernatants was quantified using MSD ECL based technology.
Cytokine Measurements 20 μL of culture supernatant were added to MSD plates, and incubated for one hour at room temperature. 20 μL of detection antibody diluted in antibody diluent (1 μg/mL), and 110 μL of 2× Read Buffer P was added, and incubated for one hour at RT. Electrochemiluminescence was measured using the SECTOR HTS Imager (MSD, Gaithersburg, Md.). Data Analysis
Compound IC50 values were calculated as follows: The proportion of cytokine production in the presence of compound compared to the cytokine production in the presence of the DMSO vehicle alone (Hi control) was calculated using the formula: Percent Control (POC)=(compound−average Lo)/(average Hi−average Lo)*100.

[2] = tested on: TNF-α secretion by LPS-treated THP1 cells; experiment: Lipopolysaccharide-activated THP1 cell TNF production assay; assay type: cell-based; settings: Homo sapiens, read-out: IC50 in the THP-1 cellular TNF production assay
[3] = tested on: Collagen-Induced Arthritis (CIA) Model in Rats; experiment: Collagen-induced arthritis (CIA) model in rats; assay type: in vivo; settings: 168 h; rat, treated for 7 days from onset of arthritis
Procedure: Collagen-Induced Arthritis (CIA) Model in Rats
Porcine type II collagen (10 mg) was dissolved in 0.1N acetic acid (5 mL) two days prior to use on a rotating plate in the refrigerator. Subsequently, collagen was emulsified 1:1 with Freund's incomplete adjuvant using an emulsification needle and glass syringes yielding a final concentration of 1 mg/mL.
Disease was induced in each animal by intradermal injection of emulsified collagen in IFA at 10 different sites (100 μL per site) over the back. […] At onset (defined as Day 0), rats were randomized to treatment groups and therapy was initiated with drug or vehicle control as noted in table above. Rats were treated for 7 days and were sacrificed on Day 8.

recombinant human p38α = recombinant human p38α (Homo sapiens, UniProt Q16539); experiment: Purified and activated recombinant human p38α HTRF kinase assay; assay type: biochemical; settings: 1 nM p38α, 50 μM ATP, GST-ATF2 substrate, read-out: p38a IC50
Sequence of recombinant human p38α (Q16539 whole entry): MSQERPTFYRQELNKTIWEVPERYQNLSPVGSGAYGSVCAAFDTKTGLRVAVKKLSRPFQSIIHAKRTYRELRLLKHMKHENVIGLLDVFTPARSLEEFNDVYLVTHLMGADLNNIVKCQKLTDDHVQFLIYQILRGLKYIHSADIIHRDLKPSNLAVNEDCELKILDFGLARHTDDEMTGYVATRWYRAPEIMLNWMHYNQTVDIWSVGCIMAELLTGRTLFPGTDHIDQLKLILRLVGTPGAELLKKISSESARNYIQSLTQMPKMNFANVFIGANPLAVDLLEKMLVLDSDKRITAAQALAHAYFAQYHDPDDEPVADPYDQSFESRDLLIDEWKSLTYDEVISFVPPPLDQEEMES

[4] = LPS 100 ng/mL, 18 hours, IL-1β, IL-6, TNF-α
[5] = THP-1, LPS, 3 hours, THP1 cells

SMILES	pIC50 [1, 4]	pIC50 [2, 5]	ED50 [3] [mg/kg]	pIC50 ([1]; 18 h)	pIC50 ([2]; THP-1, 3 h)	pIC50 (recombinant human p38α)
Cc1ccc(C(=O)NC2CC2)cc1-c1cc2cnn(-c3c(F)cccc3F)c2n(C)c1=O [Example 7, N-cyclopropyl-3-(1-(2,6-difluorophenyl)-7-methyl-6-oxo-6,7-dihydro-1H-pyrazolo[3,4-b]pyridin-5-yl)-4-methylbenzamide]	≥ 6.90	≥ 6.76	0.01			
Cc1ccc(C(=O)NC2CC2)cc1-c1cc2cnn(-c3ccc(F)cc3F)c2n(C)c1=O [Example 13, N-cyclopropyl-3-(1-(2,4-difluorophenyl)-7-methyl-6-oxo-6,7-dihydro-1H-pyrazolo[3,4-b]pyridin-5-yl)-4-methylbenzamide]			0.02	≥ 6.90	≥ 6.76	
Cc1ccc(C(N)=O)cc1-c1cc2cnn(-c3c(F)cccc3F)c2n(C)c1=O [Example 44, 3-(1-(2,6-difluorophenyl)-7-methyl-6-oxo-6,7-dihydro-1H-pyrazolo[3,4-b]pyridin-5-yl)-4-methylbenzamide]	≥ 6.90	≥ 6.76	0.07			8.47

From patent US7846944B2, “Pyrazolo-pyridinone compounds and methods of use thereof” (Amgen Inc., priority 2007, dated 2010)
